Tests used:
[1] = system: mixed lymphocyte reaction; conditions: as described in WO 99/50388; cited from earlier work
donor heart graft = assay: Rat heterotopic heart transplantation, graft survival; format: in vivo; conditions: Lewis/BN rats; i.v. or s.c., daily dose up to 1 mg/kg for 1-12 weeks, e.g. 4 weeks; daily palpation of beating donor heart
Source text: 1. Rat Heterotopic Heart Transplantation
The strain combination used: Male Lewis (RT^1 haplotype) and BN (RT^1 haplotype). The animals are anaesthetised using inhalational isofluorane. […] The aorta is ligated and divided distal to the first branch and the brachiocephalic trunk is divided at the first bifurcation. The left pulmonary artery is ligated and divided and the right side divided but left open. All other vessels are dissected free, ligated and divided and the donor heart is removed into iced saline.
The recipient is prepared by dissection and cross-clamping of the infra-renal abdominal aorta and vena cava. The graft is implanted with end-to-side anastomoses, using 10/0 monofilament suture, between the donor brachiocephalic trunk and the recipient aorta and the donor right pulmonary artery to the recipient vena cava. The clamps are removed, the graft tethered retroabdominally, the abdominal contents washed with warm saline and the animal is closed and allowed to recover under a heating lamp. Graft survival is monitored by daily palpation of the beating donor heart through the abdominal wall. Rejection is considered to be complete when heart beat stops.

Tautomycetin
inhibition of the mixed lymphocyte reaction [1]: inhibition of the mixed lymphocyte reaction
graft survival (donor heart graft): Increases of graft survival are obtained beyond treatment time
